Reference: US8414760B2, “Biosensor electrode mediators for regeneration of cofactors” (priority 1997, dated 2013)

Legend:
[1] = tested on: D-3-Hydroxybutyrate dehydrogenase (HBDH); assay: Assessment of mediator inhibition of D-3-hydroxybutyrate dehydrogenase (assay rate before and after filtration); assay type: biochemical, Pseudomonas sp.; design: Residual enzyme activity after filtration (percentage of the original activity): concentration or dose not given beside the values; conditions: for Assay Rate before filtration: 50 U/ml HBDH with mediator in Tris buffer pH 8.2, incubated 0.5 hours at 37.5 C, NADH at 340 nm, measure of efficiency as oxidant of NADH; for Assay Rate after filtration: enzyme reisolated from the mediator solution by filtration (30,000 cut-off), redissolved in Tris buffer; for Residual enzyme activity after filtration (percentage of the original activity): compared with control (no mediator)
Experimental: D-3-Hydroxybutyrate dehydrogenase (HBDH; EC 1.1.1.30) from Pseudomonas sp. was purchased from Toyobo Co., Ltd. p-Nicotinamide adenine dinucleotide (NAD^+) and D,L-3-hydroxybutyric acid were supplied by Boehringer Mannheim.
A series of 18 solutions (2.5 ml each) were prepared, each containing 50 U/ml HBDH and 1.29 or 2.58 mg of the following NAD(P)H mediators: MB(3), 4-Me-BQ(4), 1-Me0-PMS (5), DCIP(6), 1,10-PQ(7), 1,7-PQ(8), 2,9-Me2-1,10-PQ(10), 1-Me-1,10-PQ^+ (11), and [Ru(bpy)2(1,10-PQ)](PF6)2 (12) in Tris buffer (50 mM, pH 8.2). A control solution was also prepared, containing enzyme but no mediator. The solutions were incubated for 0.5 hours at 37.5 C, then assayed (in triplicate) for NADH at 340 nm, using a Sigma Diagnostics D-3-hydroxybutyrate kit. The extent of the interference of the added mediator with the assay rate compared to the control afforded a quantitative measure of the mediator's efficiency as an oxidant of NADH.
The enzyme was then reisolated from the mediator solutions by filtration through a polysulfone membrane (nominal molecular weight cut-off: 30,000) in a microcentrifuge filter (Millipore). The enzyme remaining on the filter was dissolved in Tris buffer (0.2 ml), and the resulting solution was assayed (in triplicate) with the Sigma kit. By comparing the results of the assays before and after filtration, the effect of any covalently and/or irreversibly bound mediator on the enzyme activity could be determined.

[2] = Dry strips containing HBDH and NAD+: response to D-3-hydroxybutyrate after storage
Experimental: Screen-printed electrodes were produced from an aqueous carbon ink incorporating 1,10-PQ or MB at a level of 2.4 or 4.3 mg/g ink, respectively, together with the enzyme HBDH (120 units/g ink) and NAD^+ (110 mg/g ink). The ink also contained a polysaccharide binder.
The electrodes were tested after 4, 14, and 26 weeks of storage (30° C., desiccated) with aqueous D-3-hydroxybutyrate solutions (0-25 mM) in PBS at a poise potential of +400 mV versus a printed Ag/AgCl reference electrode. All three dose responses were non-linear and levelled out with a current of 8.5 μA being recorded at 24 mM D-3-hydroxybutyrate.
The electrodes were tested after 2 and 14 weeks storage (30° C., desiccated) with aqueous D-3-hydroxybutyrate solutions (0-28 mM) in PBS at a poise potential of +100 mV versus a printed Ag/AgCl reference electrode. The dose response curves were similar to those in FIG. 4. A current of 8.6 μA was recorded at 24 mM D-3-hydroxybutyrate for these electrodes after 2 weeks storage. This is almost identical to responses obtained from dry strips containing 1,10-PQ.

[3] = Evaluation of mediators as NADH mediators in dry strips (screen-printed electrodes, NADH dose response)
Experimental: Screen-printed electrodes incorporating 1,10-PQ and MB were produced from an organic carbon ink containing these NAD(P)H mediators at a level of 3.5 mg/g ink. The solid mediators were mixed into a commercial conducting carbon ink (Gwent Electronic Materials).
The dose response curve for the electrodes containing 1,10-PQ tested with aqueous NADH solutions (0-16.7 mM) in PBS at a poise potential of +400 mV versus a printed Ag/AgCl reference electrode is shown in FIG. 3. A slope of 0.58 nA mM^−1 NADH was recorded. The dose response curve for the electrodes containing MB tested with aqueous NADH solutions (0-12.4 mM) at a poise potential of +100 mV versus a printed Ag/AgCl reference electrode is shown in FIG. 4. An increased slope of 8.48 μA mM^−1 NADH was observed.

| Compound | Assay Rate before filtration [1] | Assay Rate after filtration [1] | Residual enzyme activity after filtration (percentage of the original activity) [1] | Current at 24 mM D-3-hydroxybutyrate ([2]; after 2 weeks storage (30° C., desiccated), +100 mV versus Ag/AgCl) | Slope of dose response curve to NADH ([3]; electrodes containing MB, NADH 0-12.4 mM, +100 mV versus Ag/AgCl) | Current at 24 mM D-3-hydroxybutyrate ([2]; after 4, 14 and 26 weeks of storage (30° C., desiccated), +400 mV versus Ag/AgCl) | Slope of dose response curve to NADH ([3]; electrodes containing 1,10-PQ, NADH 0-16.7 mM in PBS, +400 mV versus Ag/AgCl) |
| --- | --- | --- | --- | --- | --- | --- | --- |
| O=C1C(=O)c2ncccc2-c2ncccc21 [1,7-PQ, 1,7-Phenanthroline quinone] | 0.115 absorbance units/min | 0.150 absorbance units/min | – | – | – | – | – |
| O=C1C(Cl)=CC(=Nc2ccc(O)cc2)C=C1Cl [DCIP, 2,6-Dichloroindophenol] | 0.104 absorbance units/min | 0.085 absorbance units/min | 57% | – | – | – | – |
| COS(=O)(=O)[O-].COc1cccc2c1nc1ccccc1[n+]2C [Compound 1-MeO-PMS, 1-Methoxy phenazine methosulphate] | 0.009 absorbance units/min | 0.071 absorbance units/min | 47% | – | – | – | – |
| [Ru(bpy)2(1,10-PQ)] (PF6)2 [[Ru(bpy)2(1,10-PQ)](PF6)2] | 0.114 absorbance units/min | 0.193 absorbance units/min | 98% | – | – | – | – |
| CC1=CC(=O)C(=O)C=C1 [Compound 4-Me-BQ, 4-Methyl-1,2-benzoquinone] | 0.005 absorbance units/min | 0.007 absorbance units/min | 4% | – | – | – | – |
| Cc1ccc2c(n1)-c1nc(C)ccc1C(=O)C2=O [2,9-Me2-1,10-PQ, 2,9-Dimethyl-1,10-phenanthroline quinone] | 0.189 absorbance units/min | – | – | – | – | – | – |
| C[n+]1cccc2c1-c1ncccc1C(=O)C2=O.O=S(=O)([O-])C(F)(F)F [1-Me-1,10-PQ^+, 1-Me-1,10-phenanthrolinium quinone trifluoromethane sulphonate] | 0.150 absorbance units/min | 0.185 absorbance units/min | 94% | – | – | – | – |
| C[N+](C)=c1ccc2nc3c(ccc4ccccc43)oc-2c1.[Cl-] [MB, Meldola's Blue] | 0.008 absorbance units/min | 0.026 absorbance units/min | 16% | 8.6 μA | 8.48 μA mM^−1 NADH | – | – |
| O=C1C(=O)c2cccnc2-c2ncccc21 [1,10-PQ, 1,10-Phenanthroline quinone] | 0.149 absorbance units/min | 0.160 absorbance units/min | – | – | – | 8.5 μA | 0.58 nA mM^−1 NADH |
